# Target: T1, ACVRL1 (ALK1) (Homo sapiens, UniProt P37023)
# T1 construct: purchased Thermo Fisher Scientific (Life Technologies) SelectScreen
# Experiment: SelectScreen LanthaScreen
# Type: binding
# Conditions: read-out: % displacement
# Outline: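 Percent values come from Thermo SelectScreen profiling of NU5455, combining activity and binding assays. CSF1R was run in Z'LYTE format at Km app ATP, and CAMK1 in Adapta format with ATP listed at 10.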
# T1 sequence (P37023 22-503): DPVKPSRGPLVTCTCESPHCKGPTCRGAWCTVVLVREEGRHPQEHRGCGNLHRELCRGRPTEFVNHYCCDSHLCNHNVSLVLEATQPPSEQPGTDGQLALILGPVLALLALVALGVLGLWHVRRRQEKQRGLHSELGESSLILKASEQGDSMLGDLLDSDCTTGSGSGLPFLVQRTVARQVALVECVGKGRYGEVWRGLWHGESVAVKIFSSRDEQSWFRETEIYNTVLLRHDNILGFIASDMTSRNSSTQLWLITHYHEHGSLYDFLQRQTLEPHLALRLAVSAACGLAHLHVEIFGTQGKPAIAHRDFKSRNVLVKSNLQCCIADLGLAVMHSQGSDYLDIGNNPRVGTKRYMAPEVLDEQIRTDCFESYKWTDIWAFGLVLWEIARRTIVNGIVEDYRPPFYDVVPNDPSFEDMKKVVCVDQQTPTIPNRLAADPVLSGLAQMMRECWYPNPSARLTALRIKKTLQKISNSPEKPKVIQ
compound,measurement,value
CN(C(=O)CN1CCOCC1)c1ccc2sc3c(-c4cccc5c(=O)cc(N6CC7CCC(C6)O7)oc45)cccc3c2c1 [NU5455],inhibition at 1 µM,2.3%
